From patent US20070269832A1, “Novel affinity labels” (priority 2001, published 2007)
Peptide text beside a SMILES is read from it. * marks the point of attachment. Cbz = O=C(OCc1ccccc1)*; CH2F = FC*

How the values were obtained:
Format in all cases: cell-based, Human
[1] = tested on: HL-60 cells; assay: Dual labeling of CPT-treated HL-60 cells with SR-VAD-FMK and FFCK or FLCK (fluorescence microscopy / LSC); conditions: CPT-treated HL-60, dual labeling
Protocol: Cell staining and fluorescence measurement by LSC: The HL-60 cells from the untreated or CPT treated cultures were centrifuged (200 g, 5 min) and resuspended in PBS at approximately 10^4 cells per 5 ml volume. Cells were then attached electrostatically to microscope slides as described before (Bedner et al., Exp Cell Res., 2000, 259:308-313; Smolewski et al., Cytometry, 2001, 44:73-82). Briefly, the attachment was achieved by the incubation (15 min) of cells suspended in serum-free PBS in shallow (<1 mm depth; 1.5×1.5 cm) wells on horizontally placed microscope slides that were rinsed in 100% ethanol and air dried prior to use, at 100% humidity. The electrostatically attached cells remain viable, exclude such dyes as trypan blue and propidium iodide (PI), and have unchanged morphology for several hours (Bedner et al., Exp Cell Res., 2000, 259:308-313). After the cells became attached, PBS was removed from the wells and was replaced by 150 μL of the culture medium containing 10% FCS. FLISP staining solutions were prepared by diluting 5 μL of the 10 mM FFCK or FLCK stock solution into 5 mL of culture medium yielding a final FLISP concentration 10 μM. The medium from above the cells on the slide was then replaced with 150 μL of this staining solution. A polyethylene foil (2.5×2.5 cm) was positioned over the staining solution to prevent drying. The slides were subsequently incubated for 1 h at 37° C. in a closed box with wet tissue to additionally prevent drying. […] The slides were placed on the motorized stage of a laser scanning microscope (LSC; Kamentsky, L. A., Methods Cell Biol, 2001, 63:51-87; Darzynkiewicz et al., Exp Cell Res, 1999, 249:1-12) for fluorescence measurement. Cell fluorescence was then measured using a 488 nm excitation laser line and recording integral and maximal pixel intensities of green FFCK or FLCK. FLICA staining was measured under the same conditions as FLISP staining. Fluorescence can also be measured by flow cytometer and fluorescence microscopy. […]

[2] = tested on: HL-60 cells; assay: Labeling of untreated and CPT-treated HL-60 cells with FLISP (FFCK, FLCK) or FLICA reagents, fluorescence measured by LSC; conditions: for binding of the ligand by cells treated with CPT vs untreated cells (in words): HL-60, 3 h CPT, combined with PI
Protocol: Preparation of Reagents: Fluorescent Inhibitors of Serine Proteases (FLISP) reagents, 5(6)-Carboxyfluoresceinyl-L-phenylalanylchloromethyl ketone (FFCK) and 5(6)-carboxyfluoresceinyl-L-leucylchloromethyl ketone (FLCK) were dissolved initially in dimethyl sulfoxide (DMSO; Sigma) to yield a 10 mM concentration. Aliquots were made from this stock solution and stored frozen at −20° C. protected from light. This reagent stock was then diluted directly into the cell culture media to give a 1× working reagent concentration of 10 μM. Dilution of the reagent into aqueous (cell culture) media is done just prior to cell exposure to preserve the labile chloromethyl ketone reactivity of FLISP reagent.
Fluorescent inhibitors of caspases (FLICA) reagents, namely the fluorescein labeled VAD-FMK (FAM-VAD-FMK) and sulforhodamine labeled VAD-FMK (SR-VAD-FMK) (Immunochemistry Technologies; Bloomington, Minn.) were both designed to detect the presence of active caspases within apoptotic cells. These inhibitors were dissolved in DMSO to obtain a 150× concentrated stock solution. Aliquots of these solutions were stored at −20 °C in the dark. Prior to use, a 30× working solution of either FAM-VAD-FMK or SR-VAD-FMK was prepared by diluting the stock solution 1:5 in phosphate buffered saline (PBS) and mixing until the solution become clear. The 30× working solution was diluted 1:30 cell culture media to give a final 1× working reagent concentration of 10 μM.
(§1) Cells: Human promyelocytic leukemic HL-60 cells were obtained from American Type Culture Collection (ATCC; Rockville, Md.). […]
Cell staining and fluorescence measurement by LSC: The HL-60 cells from the untreated or CPT treated cultures were centrifuged (200 g, 5 min) and resuspended in PBS at approximately 10^4 cells per 5 ml volume. […]

[3] = tested on: HL-60 cells; assay: Pretreatment of HL-60 cells with unlabeled protease inhibitors during CPT induction of apoptosis, then binding of FAM-VAD-FMK, FFCK or FLCK measured by LSC; conditions: HL-60, CPT 3 h in presence of the unlabeled inhibitor; mean (SE) of three experiments
Protocol: Unlabeled (cold) N-tosyl-phenylalanylchloromethyl ketone (TPCK) and N-tosyl-lysylchloromethyl keytone (TLCK) were obtained from Sigma Chemical Co.; concentrated solutions at 10 mM were freshly prepared in DMSO. Further dilutions were made in tissue culture media.
The non-fluorescent poly-caspase inhibitor Z-VAD-FMK was obtained from Enzyme Systems Products. A 20 mM stock solution of Z-VAD-FMK was made in DMSO (Sigma) and the inhibitor was then diluted in culture media to obtain the final 50 μM concentration in the cultures.
as §1
Cell staining and fluorescence measurement by LSC: The HL-60 cells from the untreated or CPT treated cultures were centrifuged (200 g, 5 min) and resuspended in PBS at approximately 10^4 cells per 5 ml volume. […] The slides were placed on the motorized stage of a laser scanning microscope (LSC; Kamentsky, L. A., Methods Cell Biol, 2001, 63:51-87; Darzynkiewicz et al., Exp Cell Res, 1999, 249:1-12) for fluorescence measurement. Cell fluorescence was then measured using a 488 nm excitation laser line and recording integral and maximal pixel intensities of green FFCK or FLCK. FLICA staining was measured under the same conditions as FLISP staining. Fluorescence can also be measured by flow cytometer and fluorescence microscopy. […]

Molecule	fluorescence of labeled cells (intensity and distribution, in words) [1]	binding of the ligand by cells treated with CPT vs untreated cells (in words) [2]	fluorescence intensity of FLCK labeled cells, greater compared to FFCK labeled cells ([2]; identical settings of the photomultiplier sensitivity)	percent decrease in frequency of FAM-VAD-FMK labeled cells (caspase activation) vs CPT without unlabeled inhibitor [3]
5(6)-Carboxyfluoresceinyl-L-phenylalanylchloromethyl ketone [FFCK]	strong	induced binding		
5(6)-carboxyfluoresceinyl-L-leucylchloromethyl ketone [FLCK]	faint and more uniformly distributed	induced binding	approximately 60%	
COC(=O)C[C@H](NC(=O)[C@H](C)NC(=O)[C@@H](NC(=O)OCc1ccccc1)C(C)C)C(=O)CF [Z-VAD-FMK] (Cbz-Val-Ala-Asp(OMe)-CH2F)				95.0%
Sulforhodaminyl-L-valylalanylaspartylflyoromethyl ketone [SR-VAD-FMK, reference compound]	uniformly dispersed			
